Data reported in article PMC10600239, “Selective MCL-1 inhibitor ABBV-467 is efficacious in tumor models but is associated with cardiac troponin increases in patients” (Communications Medicine, 2023).
Where “and” joins values, the source holds several entries; their conditions need not be identical. Identical values can stand only once.

System: AMO-1 xenografts
Assay: AMO-1 xenograft efficacy (tumor volume, body weight)
Format: in vivo, mouse
Procedure: All animal studies were conducted in accordance with the guidelines approved by the Institutional Animal Care and Use Committees of AbbVie. The research protocol was approved by In Vivo Pharmacology at AbbVie prior to study initiation but was not publicly registered or disclosed. Female C.B-17 SCID-beige mice (AMO-1, OPM-2, NCI-H929, and OCI-AML2 xenografts) and female NSG mice (MV4-11-Red.Fluc systemic) were purchased from Charles River Laboratories (Wilmington, MA). Animals were housed in a light cycle-controlled room with HEPA filtration at 22 °C. Animals had nesting and climbing cage topper as the primary environmental enrichment. Animals were inoculated subcutaneously in the right flank with 5 × 10^6 (AMO-1, OPM-2, NCI-H929, and OCI-AML2) or intravenous (IV) with 5 × 10^6 (MV4-11-Red.Fluc). The inoculation volume (0.2 mL) comprised a 50:50 mixture of cells in growth media and Matrigel (BD Biosciences) for subcutaneous injections and 100% phosphate-buffered saline for IV administration. All cell lines used in this publication were authenticated using IDEXX for STR profiling as well as their IMPACT and human IMPACT panels for pathogen screening. Electronic calipers were used to measure the length and width of each tumor 2 to 3 times per week. Tumor volume was estimated by applying the following equation: volume = length × width^2/2. All groups remained blinded during measurements and dosing; only veterinary staff were aware of group identity. When tumors reached approximately 200 mm^3, mice were randomized by match and distributed into treatment and control groups. All xenograft trials were conducted using 5 to 10 mice per group, and all mice were ear tagged and monitored individually throughout the studies. […] Tumor burden in the systemic MV4-11-Red.Fluc experiment was measured using an IVIS® spectrum from PerkinElmer by taking the total photon flux of the entire dorsal side of an individual mouse. […] A background control mouse that was tumor naive but received D-Luciferin was placed in the upper left corner of each image. The total flux from this animal was subtracted from the total flux of each animal present in the image.
For in vivo studies, maximal tumor growth inhibition (TGI) was calculated as the greatest treatment response using the following equation: Maximal TGI = (1 − mean tumor volume of the treated group/mean tumor volume of the vehicle control group) × 100. The tumor growth delay (TGD) percentage was determined as the percentage increase of the median time period for the treatment group to reach an arbitrary tumor volume of 1000 mm^3 relative to the vehicle control group. […] A power analysis was conducted using historical data to determine the number of animals required to yield significance of 0.05 at a 30% difference. […] Data from experiments in vivo were analyzed using the student’s t-test for TGI values and the Mann–Whitney U test for TGD using Excel and GraphPad Prism. Fisher’s exact test was used to probe significance of differences in response frequency.

[1] = 6.25 mg/kg Q7Dx2 IV, SCID-beige female mice, Day 26
[2] = 6.25 mg/kg Q7Dx2 IV, SCID-beige female mice, Day 28
[3] = 6.25 mg/kg Q7Dx2 IV, SCID-beige mice, Day 13 (measure date 10/25/2017, dosing begin 10/26/2017)
[4] = 6.25 mg/kg QDx1 IV, Day 26, n=8
[5] = 6.25 mg/kg QDx1 IV, Day 28, n=8
[6] = 6.25 mg/kg QDx1 IV, SCID-beige mice, Day 21
[7] = 6.25 mg/kg QDx1 IV, SCID-beige mice, Day 23
[8] = 6.25 mg/kg QDx1 IV, SCID-beige mice, Day 23, mean(T)/mean(C)
[9] = 6.25 mg/kg QDx1 IV, SCID-beige mice, Day 23, median(T)/median(C)

## Cc1c(Cl)c2c(Cl)c(C)c1-c1c(-c3ccc(F)cc3)sc3ncnc(c13)O[C@@H](C(=O)O)Cc1cc(ccc1OCc1ccnc(-c3ccc(OC[C@H]4COCCO4)cc3)n1)OC[C@@H](CN1CCN(C)CC1)O2 [Compound A-1747745.0]
6.25 mg/kg Q7Dx2 IV, SCID-beige female mice, Day 24
  Xenograft AMO-1 (DSMZ) tumor volume Day 24, Median: 183.76 mm³
[1]
  Xenograft AMO-1 (DSMZ) tumor volume Day 26, Mean: 300.68 mm³
  Xenograft AMO-1 (DSMZ) tumor volume Day 26, Median: 173.91 mm³
  Xenograft AMO-1 (DSMZ) tumor volume Day 26, individual animals: 165 mm³ and 890 mm³ and 293 mm³ and 308 mm³ and 143 mm³ and 174 mm³ and 132 mm³
[2]
  Xenograft AMO-1 (DSMZ) (mm³) Day 28, individual animals: 242 mm³ and 1605 mm³ and 585 mm³ and 510 mm³ and 266 mm³ and 306 mm³ and 32 mm³
  Xenograft AMO-1 (DSMZ) Day 28 Mean: 506.48 mm³
  Xenograft AMO-1 (DSMZ) Day 28 Median: 305.62 mm³
[3]
  Xenograft AMO-1 (DSMZ) tumor volume Day 13, Mean: 222.44 mm³
  Xenograft AMO-1 (DSMZ) tumor volume Day 13, Median: 219.48 mm³
  Xenograft AMO-1 (DSMZ) tumor volume Day 13, individual animals: 230 mm³ and 206 mm³ and 247 mm³ and 219 mm³ (2×) and 232 mm³ and 204 mm³
6.25 mg/kg Q7Dx2 IV, group mean tumor volume, Day 32
  Xenograft AMO-1 (DSMZ) (mm³) Day 32 Mean: 1661.51 mm³
6.25 mg/kg Q7Dx2 IV, group median tumor volume, Day 32
  Xenograft AMO-1 (DSMZ) (mm³) Day 32 Median: 1251.91 mm³
6.25 mg/kg Q7Dx2 IV, individual animal tumor volume, Day 32
  Xenograft AMO-1 (DSMZ) (mm³) Day 32: 1252 mm³ and 3313 mm³ and 2126 mm³ and 1223 mm³ and 2463 mm³ and 1036 mm³ and 218 mm³
[4]
  Xenograft AMO-1 (DSMZ) tumor volume Day 26, Mean: 454.97 mm³
  Xenograft AMO-1 (DSMZ) tumor volume Day 26, Median: 392.97 mm³
6.25 mg/kg QDx1 IV, Day 26, mean(T)/mean(C)
  % T/C (mean) tumor volume Day 26: 28.88%
6.25 mg/kg QDx1 IV, Day 26, median(T)/median(C)
  % T/C (median) tumor volume Day 26: 24.60%
[5]
  Xenograft AMO-1 (DSMZ) tumor volume Day 28, Mean: 690.68 mm³
  Xenograft AMO-1 (DSMZ) tumor volume Day 28, Median: 578.26 mm³
6.25 mg/kg QDx1 IV, Day 28, mean(T)/mean(C)
  % T/C (mean) tumor volume Day 28: 33.71%
6.25 mg/kg QDx1 IV, Day 28, median(T)/median(C)
  % T/C (median) tumor volume Day 28: 29.98%
6.25 mg/kg QDx1 IV, SCID-beige female mice, Day 26
  Xenograft AMO-1 (DSMZ) tumor volume Day 26, individual animals: 386 mm³ and 701 mm³ and 245 mm³ and 206 mm³ and 598 mm³ and 235 mm³ and 868 mm³ and 400 mm³
6.25 mg/kg QDx1 IV, SCID-beige female mice, Day 28
  Xenograft AMO-1 (DSMZ) tumor volume Day 28, individual animals: 518 mm³ and 1122 mm³ and 542 mm³ and 307 mm³ and 666 mm³ and 511 mm³ and 1246 mm³ and 614 mm³
[6]
  Xenograft AMO-1 (DSMZ) Day 21, Mean: 175.92 mm³
  Xenograft AMO-1 (DSMZ) Day 21, Median: 202.13 mm³
6.25 mg/kg QDx1 IV, SCID-beige mice, Day 21, individual tumor volumes
  Xenograft AMO-1 (DSMZ) (mm³) Day 21, individual animals: 202 mm³ (2×) and 236 mm³ and 49 mm³ and 84 mm³ and 144 mm³ and 230 mm³ and 260 mm³
6.25 mg/kg QDx1 IV, SCID-beige mice, Day 21, mean(T)/mean(C)
  % T/C (mean), Tumor Volume Day 21: 27.52%
6.25 mg/kg QDx1 IV, SCID-beige mice, Day 21, median(T)/median(C)
  % T/C (median), Tumor Volume Day 21: 38.38%
[7]
  Xenograft AMO-1 (DSMZ) Day 23 Mean: 218.85 mm³
  Xenograft AMO-1 (DSMZ) Day 23 Median: 225.89 mm³
6.25 mg/kg QDx1 IV, SCID-beige mice, Day 23, individual tumor volumes
  Xenograft AMO-1 (DSMZ) (mm³) Day 23, individual animals: 209 mm³ and 282 mm³ and 56 mm³ and 156 mm³ and 155 mm³ and 243 mm³ and 349 mm³ and 301 mm³
[8]
  % T/C (mean), body weight Day 23: 103.53%
  % T/C (mean), tumor volume Day 23: 20.49%
[9]
  % T/C (median), body weight Day 23: 103.53%
  % T/C (median), tumor volume Day 23: 23.21%
6.25 mg/kg QDx1 IV, Day 30, SCID-beige female mice, tumor volume per animal
  Xenograft AMO-1 (DSMZ) (mm³) Day 30 (individual animals): 694 mm³ and 1347 mm³ and 555 mm³ and 384 mm³ and 801 mm³ and 782 mm³ and 1535 mm³ and 959 mm³
6.25 mg/kg QDx1 IV, Day 30, group mean
  Xenograft AMO-1 (DSMZ) (mm³) Day 30 Mean: 882.20 mm³
6.25 mg/kg QDx1 IV, Day 30, group median
  Xenograft AMO-1 (DSMZ) (mm³) Day 30 Median: 791.67 mm³
6.25 mg/kg QDx1 IV, Day 34, SCID-beige female mice, tumor volume per animal
  Xenograft AMO-1 (DSMZ) (mm³) Day 34 (individual animals): 2680 mm³ and 1975 mm³ and 1296 mm³ and 886 mm³ and 1388 mm³ and 1259 mm³ and 1718 mm³ and 1542 mm³
